Source: patent US8846698B2, “Pyrrolo[2,3-d]pyrimidine tropomysin-related kinase inhibitors” (Pfizer Limited, priority 2011, dated 2014)

Biological target: TRKA (Homo sapiens (Human), UniProt P04629)
Assay: Isolated TRK enzyme assay (HTRF KinEASE-TK), TRKA
Type: biochemical
Settings: read-out: Trka enzyme (IC50)

Sequence of TRKA (P04629 441-796): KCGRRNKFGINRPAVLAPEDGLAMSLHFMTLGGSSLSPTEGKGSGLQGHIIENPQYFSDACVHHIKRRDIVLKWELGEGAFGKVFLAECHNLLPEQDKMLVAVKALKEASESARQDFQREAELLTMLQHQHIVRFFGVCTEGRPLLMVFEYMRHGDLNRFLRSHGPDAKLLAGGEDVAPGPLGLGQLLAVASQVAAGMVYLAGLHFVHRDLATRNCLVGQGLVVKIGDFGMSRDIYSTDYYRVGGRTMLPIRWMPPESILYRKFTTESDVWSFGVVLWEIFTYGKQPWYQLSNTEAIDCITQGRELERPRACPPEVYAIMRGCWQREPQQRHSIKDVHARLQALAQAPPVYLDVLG

IC50 [µM]	Structure (SMILES)
0.835	CS(=O)(=O)Cn1cc(C(=O)c2cncc(NC(=O)Cc3ccc(Cl)cc3)c2)c2cncnc21 [Example 314, 2-(4-chlorophenyl)-N-[5-({7-[(methylsulfonyl)methyl]-7H-pyrrolo[2,3-d]pyrimidin-5-yl}carbonyl)pyridin-3-yl]acetamide]
0.0391	CC(C)n1cc(C(=O)c2cncc(NC(=O)Cc3cnn(C4CC4)c3C(F)(F)F)c2)c2cncnc21 [Example 315, 2-(1-Cyclopropyl-5-trifluoromethyl-1H-pyrazol-4-yl)-N-[5-(7-isopropyl-7H-pyrrolo[2,3-d]pyrimidine-5-carbonyl)-pyridin-3-yl]-acetamide]
0.188	Cn1cc(C(=O)c2cncc(NC(=O)Cc3ccc(Cl)cc3)c2)c2cncnc21 [Example 319, 2-(4-chlorophenyl)-N-{5-[(7-methyl-7H-pyrrolo[2,3-d]pyrimidin-5-yl)carbonyl]pyridin-3-yl}acetamide]
3.1	Cn1cc(C(=O)c2cncc(NC(=O)CCc3ccc(Cl)cc3)c2)c2cncnc21 [Example 320, 3-(4-chlorophenyl)-N-{5-[(7-methyl-7H-pyrrolo[2,3-d]pyrimidin-5-yl)carbonyl]pyridin-3-yl}propanamide]
3.1	Cc1cccc(CCC(=O)Nc2cncc(C(=O)c3cn(C)c4ncncc34)c2)c1 [Example 321, 3-(3-methylphenyl)-N-{5-[(7-methyl-7H-pyrrolo[2,3-d]pyrimidin-5-yl)carbonyl]pyridin-3-yl}propanamide]
9.8	Cn1cc(C(=O)c2cncc(NC(=O)CCc3cccnc3)c2)c2cncnc21 [Example 322, N-{5-[(7-methyl-7H-pyrrolo[2,3-d]pyrimidin-5-yl)carbonyl]pyridin-3-yl}-3-(pyridin-3-yl)propanamide]
3.1	Cn1cc(C(=O)c2cncc(NC(=O)CCc3cccc(Cl)c3)c2)c2cncnc21 [Example 323, 3-(3-chlorophenyl)-N-{5-[(7-methyl-7H-pyrrolo[2,3-d]pyrimidin-5-yl)carbonyl]pyridin-3-yl}propanamide]
3.1	Cn1cc(C(=O)c2cncc(NC(=O)CCc3cccc(F)c3)c2)c2cncnc21 [Example 324, 3-(3-fluorophenyl)-N-{5-[(7-methyl-7H-pyrrolo[2,3-d]pyrimidin-5-yl)carbonyl]pyridin-3-yl}propanamide]
0.111	Cn1cc(C(=O)c2cncc(NC(=O)COc3ccccc3OC(F)(F)F)c2)c2cncnc21 [Example 325, N-{5-[(7-methyl-7H-pyrrolo[2,3-d]pyrimidin-5-yl)carbonyl]pyridin-3-yl}-2-[2-(trifluoromethoxy)phenoxy]acetamide]
2.98	Cc1ccccc1CCC(=O)Nc1cncc(C(=O)c2cn(C)c3ncncc23)c1 [Example 326, 3-(2-methylphenyl)-N-{5-[(7-methyl-7H-pyrrolo[2,3-d]pyrimidin-5-yl)carbonyl]pyridin-3-yl}propanamide]
3.1	Cn1cc(C(=O)c2cncc(NC(=O)CCc3ccccc3F)c2)c2cncnc21 [Example 327, 3-(2-fluorophenyl)-N-{5-[(7-methyl-7H-pyrrolo[2,3-d]pyrimidin-5-yl)carbonyl]pyridin-3-yl}propanamide]
3.1	Cn1cc(C(=O)c2cncc(NC(=O)CCc3ccc(F)cc3)c2)c2cncnc21 [Example 328, 3-(4-fluorophenyl)-N-{5-[(7-methyl-7H-pyrrolo[2,3-d]pyrimidin-5-yl)carbonyl]pyridin-3-yl}propanamide]
9.81	Cn1cc(C(=O)c2cncc(NC(=O)CCc3ccccc3)c2)c2cncnc21 [Example 329, N-{5-[(7-methyl-7H-pyrrolo[2,3-d]pyrimidin-5-yl)carbonyl]pyridin-3-yl}-3-phenylpropanamide]
3.1	Cc1ccc(CCC(=O)Nc2cncc(C(=O)c3cn(C)c4ncncc34)c2)cc1 [Example 330, 3-(4-methylphenyl)-N-{5-[(7-methyl-7H-pyrrolo[2,3-d]pyrimidin-5-yl)carbonyl]pyridin-3-yl}propanamide]
